The record followed here is US9682941B2, “Substituted biphenyl analogues as dual inhibitors of aromatase and sulfatase” (ESTRYX PHARMA LIMITED, priority 2013, dated 2017).

One test deals with T1, steroid sulfatase (Homo sapiens, UniProt P08842).
T1 construct: JEG-3 which constitutively expresses high amount of aromatase and steroid sulfatase; endogenous in cells; host or cells: JEG-3
T1 sequence (P08842 22-583): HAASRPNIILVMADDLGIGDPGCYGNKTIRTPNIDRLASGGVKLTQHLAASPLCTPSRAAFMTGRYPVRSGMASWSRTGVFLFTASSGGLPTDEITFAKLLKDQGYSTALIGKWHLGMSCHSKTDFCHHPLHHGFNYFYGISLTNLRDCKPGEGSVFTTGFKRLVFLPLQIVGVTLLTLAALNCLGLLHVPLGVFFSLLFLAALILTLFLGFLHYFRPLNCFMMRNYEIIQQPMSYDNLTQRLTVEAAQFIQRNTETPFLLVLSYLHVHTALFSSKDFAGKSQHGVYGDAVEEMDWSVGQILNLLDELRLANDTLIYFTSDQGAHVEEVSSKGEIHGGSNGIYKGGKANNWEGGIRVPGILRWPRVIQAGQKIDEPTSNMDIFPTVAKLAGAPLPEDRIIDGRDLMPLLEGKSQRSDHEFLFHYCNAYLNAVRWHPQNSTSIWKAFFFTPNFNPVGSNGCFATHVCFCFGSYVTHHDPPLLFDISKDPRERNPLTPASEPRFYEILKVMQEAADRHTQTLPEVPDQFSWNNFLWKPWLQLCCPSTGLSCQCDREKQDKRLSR
Description: Steroid sulfatase (STS) inhibition assay in JEG-3 cells ([6,7-3H] estrone sulfate). In kind it is cell-based. Particulars: 1 hour at 37° C., duplicate. The procedure:
(§1) Aromatase and steroid sulfatase enzymes inhibitions were evaluated in the human chorionic carcinoma cell line JEG-3 which constitutively expresses high amount of aromatase and steroid sulfatase.
For STS assay, JEG-3 cells were seeded into 24-well culture plates at 150,000 cells/ml/well and maintained in MEM containing supplements overnight. When reaching 80% confluent, the cells were washed once with serum-free MEM, loaded with 1 ml of substrate mix containing [6,7-3H] Estrone sulfate (E1S, 0.6 μCi/ml) and [4-14C] Estrone (E1, 4 nCi/ml) in the presence of compounds in a concentration series, and incubated for 1 hour at 37° C. The product [3H]E1 was separated from E1S by toluene partition using [4-14C]E1 to monitor extraction procedural losses, and the toluene fraction radioactivity was measured by a MicroBeta scintillation counter.
(§2) Experiments are performed in duplicate. The inhibitory concentration of 50% of the enzymatic activity is calculated.

The target in a further test is T2, aromatase (Homo sapiens, UniProt P11511).
T2 construct: JEG-3 which constitutively expresses high amount of aromatase and steroid sulfatase; endogenous in cells; host or cells: JEG-3
T2 sequence (P11511 1-503): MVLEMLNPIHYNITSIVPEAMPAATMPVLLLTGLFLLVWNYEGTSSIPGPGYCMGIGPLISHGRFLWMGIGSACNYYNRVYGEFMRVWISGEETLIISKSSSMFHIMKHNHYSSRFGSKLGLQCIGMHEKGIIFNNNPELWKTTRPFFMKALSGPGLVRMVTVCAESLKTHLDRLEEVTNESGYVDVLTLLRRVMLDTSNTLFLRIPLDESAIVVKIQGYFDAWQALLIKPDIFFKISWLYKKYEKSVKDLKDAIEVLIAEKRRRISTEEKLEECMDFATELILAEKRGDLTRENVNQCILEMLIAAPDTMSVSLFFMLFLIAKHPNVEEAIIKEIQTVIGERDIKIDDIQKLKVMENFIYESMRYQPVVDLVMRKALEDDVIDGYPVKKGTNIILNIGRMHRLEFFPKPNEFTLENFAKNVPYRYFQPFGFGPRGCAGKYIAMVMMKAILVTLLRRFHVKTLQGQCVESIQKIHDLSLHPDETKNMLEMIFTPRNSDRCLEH
Description: Aromatase inhibition assay in JEG-3 cells ([1β-3H] androstenedione, tritiated water release). Particulars: 1.25 hour incubation, duplicate. In kind it is cell-based. The procedure:
as §1
For aromatase inhibition assay, JEG-3 cells were seeded into 96-well plates at 35,000 cells/well and maintained in MEM containing supplements. When reaching 80% confluent, the cells were washed once with serum-free MEM, incubated with [1β-^3H] androstenedione (A4, 0.2 μCi/ml) for 1.25 hour in the presence of the test substances added in a concentration series. The product, tritiated water (^3H2O), was separated using 2.5% (w/v) dextran-coated charcoal at 4-8° C. for 2 hours. The supernatant radioactivity was measured by a MicroBeta scintillation counter.
as §2

The IC50 is the midpoint of a concentration-inhibition curve. A higher IC50 goes with lower potency. For the molecule `N#Cc1ncc(Nn2cnc3ccccc32)nc1-c1ccc(OS(N)(=O)=O)cc1` [Example 32, 4-(6-(1H-Benzo[d]imidazol-1-ylamino)-3-cyanopyrazin-2-yl)phenyl sulfamate], the IC50 is 0.0195 µM at steroid sulfatase and 0.0376 µM at aromatase.

Turning to `N#Cc1ccc(Cn2cnc3cccnc32)cc1-c1ccc(OS(N)(=O)=O)cn1` [Example 33, 6-(5-((3H-Imidazo[4,5-b]pyridin-3-yl)methyl)-2-cyanophenyl)pyridin-3-yl sulfamate], the figures for the 50% inhibitory concentration (IC50) on steroid sulfatase and on aromatase were 0.0176 µM and 0.009 µM, respectively.

As for `CN(c1cnc(C#N)c(-c2ccc(OS(N)(=O)=O)cc2)n1)n1cnc2ccccc21` [Example 34, 4-(6-((1H-Benzo[d]imidazol-1-yl)(methyl)amino)-3-cyanopyrazin-2-yl)phenyl sulfamate], the IC50 against steroid sulfatase came to 0.0357 µM; against aromatase, 0.0084 µM.

Take `N#Cc1ccc(Nn2nnc3cccnc32)cc1-c1ccc(OS(N)(=O)=O)cc1` [Example 35, 5′-(3H-[1,2,3]Triazolo[4,5-b]pyridin-3-ylamino)-2′-cyano-[1,1′-biphenyl]-4-yl sulfamate]: the 50% inhibitory concentration (IC50) at steroid sulfatase came out at 0.0294 µM; against aromatase it was 0.0051 µM.

Regarding `CN(c1ccc(C#N)c(-c2ccc(OS(N)(=O)=O)cn2)c1)n1cnc2ccccc21` [Example 37, 6-(5-((1H-Benzo[d]imidazol-1-yl)(methyl)amino)-2-cyanophenyl)pyridin-3-yl sulfamate], the half-maximal inhibitory concentration (IC50) on steroid sulfatase stood at 0.0418 µM; at aromatase it was 0.0024 µM.

Regarding `N#Cc1ncc(Nn2cnc3ccccc32)cc1-c1ccc(OS(N)(=O)=O)cc1` [Example 38, 4-(5-(1H-Benzo[d]imidazol-1-ylamino)-2-cyanopyridin-3-yl)phenyl sulfamate], the IC50 turned out to be 0.0191 µM against steroid sulfatase and 0.0027 µM at aromatase.

On to `CN(c1cnc(C#N)c(-c2ccc(OS(N)(=O)=O)cc2)c1)n1cnc2ccccc21` [Example 39, 4-(5-((1H-Benzo[d]imidazol-1-yl)(methyl)amino)-2-cyanopyridin-3-yl)phenyl sulfamate], for which the IC50 is greater than 0.06 µM against steroid sulfatase and 0.0015 µM at aromatase.

In the case of `N#Cc1ncc(Nn2cnc3cccnc32)nc1-c1ccc(OS(N)(=O)=O)cc1` [Example 40, 4-(6-(3H-Imidazo[4,5-b]pyridin-3-ylamino)-3-cyanopyrazin-2-yl)phenyl sulfamate], the values for the concentration for half-maximal inhibition (IC50) on steroid sulfatase and on aromatase were 0.0188 µM and greater than 0.06 µM, respectively.

Take `N#Cc1ccc(Nn2cnc3ccccc32)cc1-c1ccc(OS(N)(=O)=O)cn1` [Example 41, 6-(5-(1H-Benzo[d]imidazol-1-ylamino)-2-cyanophenyl)pyridin-3-yl sulfamate]: the IC50 was 0.0093 µM on steroid sulfatase and 0.002 µM at aromatase.

Regarding `N#Cc1ccc(Cn2cnc3ccccc32)nc1-c1ccc(OS(N)(=O)=O)cn1` [Example 42, 6′-((1H-Benzo[d]imidazol-1-yl)methyl)-3′-cyano-[2,2′-bipyridin]-5-yl sulfamate], the figures for the IC50 against steroid sulfatase and on aromatase were greater than 0.06 µM and 0.0419 µM, respectively.

Regarding `N#Cc1ncc(Nn2cnc3cccnc32)cc1-c1ccc(OS(N)(=O)=O)cc1` [Example 43, 4-(5-(3H-Imidazo[4,5-b]pyridin-3-ylamino)-2-cyanopyridin-3-yl)phenyl sulfamate], the IC50 was greater than 0.06 µM against steroid sulfatase and 0.0118 µM on aromatase.

Consider `CN(c1cnc(C#N)c(-c2ccc(OS(N)(=O)=O)cc2)n1)n1cnc2cccnc21` [Example 44, 4-(6-((3H-Imidazo[4,5-b]pyridin-3-yl)(methyl)amino)-3-cyanopyrazin-2-yl)phenyl sulfamate], for which the IC50 on steroid sulfatase was greater than 0.06 µM; against aromatase it was 0.0058 µM.

As for `CN(c1cnc(C#N)c(-c2ccc(OS(N)(=O)=O)cc2)c1)n1cnc2cccnc21` [Example 45, 4-(5-((3H-Imidazo[4,5-b]pyridin-3-yl)(methyl)amino)-2-cyanopyridin-3-yl)phenyl sulfamate], the IC50 on steroid sulfatase was greater than 0.06 µM; at aromatase, 0.0021 µM.

Consider `N#Cc1ccc(Nn2cnc3cccnc32)nc1-c1ccc(OS(N)(=O)=O)cc1` [Example 46, 4-(6-(3H-Imidazo[4,5-b]pyridin-3-ylamino)-3-cyanopyridin-2-yl)phenyl sulfamate], for which the values for the half-inhibitory concentration (IC50) on steroid sulfatase and on aromatase were 0.0395 µM and 0.0217 µM, respectively.

Consider `N#Cc1cnc(Nn2cnc3cccnc32)nc1-c1ccc(OS(N)(=O)=O)cc1` [Example 47, 4-(2-(3H-Imidazo[4,5-b]pyridin-3-ylamino)-5-cyanopyrimidin-4-yl)phenyl sulfamate], for which the IC50 is 0.0441 µM against steroid sulfatase and 0.0561 µM at aromatase.

In the case of `CN(c1ncc(C#N)c(-c2ccc(OS(N)(=O)=O)cc2)n1)n1cnc2cccnc21` [Example 48, 4-(2-((3H-Imidazo[4,5-b]pyridin-3-yl)(methyl)amino)-5-cyanopyrimidin-4-yl)phenyl sulfamate], the IC50 was greater than 0.06 µM against steroid sulfatase and 0.0058 µM against aromatase.

For `CN(c1ccc(C#N)c(-c2ccc(OS(N)(=O)=O)cc2)n1)n1cnc2cccnc21` [Example 49, 4-(6-((3H-Imidazo[4,5-b]pyridin-3-yl)(methyl)amino)-3-cyanopyridin-2-yl)phenyl sulfamate], the values for the concentration for half-maximal inhibition (IC50) at steroid sulfatase and at aromatase were greater than 0.06 µM and 0.0037 µM, respectively.

`N#Cc1ncc(Cn2cnc3cccnc32)cc1-c1ccc(OS(N)(=O)=O)cc1` [Example 50, 4-(5-((3H-imidazo[4,5-b]pyridin-3-yl)methyl)-2-cyanopyridin-3-yl)phenyl sulfamate]: the IC50 against steroid sulfatase was greater than 0.06 µM; against aromatase, 0.0163 µM.

With `N#Cc1ncc(Cn2cnc3cc(F)c(F)cc32)cc1-c1ccc(OS(N)(=O)=O)cc1` [Example 51, 4-(2-Cyano-5-((5,6-difluoro-1H-benzo[d]imidazol-1-yl)methyl)pyridin-3-yl)phenyl sulfamate], the IC50 against steroid sulfatase is 0.0155 µM; on aromatase, 0.0022 µM.

As for `N#Cc1cnc(Cn2cnc3cc(F)c(F)cc32)nc1-c1ccc(OS(N)(=O)=O)cc1` [Example 52, 4-(5-Cyano-2-((5,6-difluoro-1H-benzo[d]imidazol-1-yl)methyl)pyrimidin-4-yl)phenyl sulfamate], the IC50 on steroid sulfatase stood at 0.0054 µM; against aromatase it was 0.0029 µM.
